Test results taken from US9283235B2, “Intermittent lowering of cortisol as treatment of clinical conditions associated with abnormal concentrations of cortisol in animals” (Stegram Pharmaceuticals Limited, priority 2001, dated 2016).
Where “and” joins values, the source holds several entries; their conditions need not be identical. Equal entries are not always repeated. Entries after “also recorded” stand apart in the source; their conditions may differ.

Assays:
serum cortisol = test: Mean serum cortisol over 24 hours (4-hourly samples) in horses with Cushing's disease; assay type: in vivo, horse
Procedure: (§1) The ability of intermittent administration of Trilostane to block adrenal steroidogenesis was assessed in twenty horses (mean age 21, SD 5.7 years) with equine Cushing's disease. The combined dexamethasone suppression thyrotropin releasing hormone (TRH) stimulation test (17 horses) or TRH stimulation test (3 horses) was used as a standard test of function of the hypothalamic-pituitary-adrenal axis. Serum samples for cortisol analysis were collected via indwelling catheter at 4-hourly intervals over 24 hours on each of the test periods. These were before treatment then at 210 minutes (30 min after I mg i.v. TRH) and 22 hours after […] dexamethasone i.m. Affected horses were treated with 0.4 to 1 mg/kg, (mean 0.5 mg/kg) trilostane administered once daily in feed for a period of 30 days. After 30 days endocrine testing was repeated. Serum cortisol before and after treatment was compared by paired t-test.

[1] = tested on: ACTH stimulation of the adrenal gland; test: ACTH stimulation test, serum cortisol in dogs; assay type: in vivo, dog
Procedure: Dogs were entered into the study sequentially over a period of 2-3.5 years Owners were informed about the experimental nature of the treatment and signed a consent form. The ACTH stimulation test was performed by collection of serum samples before and one hour after intravenous injection of ACTH (Synacthen, Alliance) at a dose of 0.125 mg for dogs weighing less than 15 kg, and 0.25 mg for dogs weighing greater than 15 kg. Cortisol concentration was measured by radioimmunoassay previously validated for dogs Blood for endogenous ACTH was collected into a cooled EDTA tube in ice, centrifuged immediately and the frozen at −20° C. Abdominal ultrasound was performed by an experienced board-certified radiologist and adrenal thickness was assessed as a single measurement made perpendicular to the long axis and was defined as the greatest dorso-ventral dimension.
Dogs with Cushing's disease were given an ACTH stimulation test at 12, 35 and 81 days (average) during a course of treatment with a single daily dose of trilostane of 5-20 mg/kg. […] Thus, trilostane has blunted ACTH stimulation of the adrenal gland.

[2] = tested on: dogs with hyperadrenocorticism (HAC); test: Tolerability and adverse events of trilostane in dogs with HAC; assay type: in vivo, dog
Procedure: (§2) Follow-up re-examinations took place after 10 days, 4 weeks, 3 mouths, 6 months and then every 6 months or within 4 weeks of adjusting the dosage. At these points, owners were carefully questioned about their perception of the dogs general well being, dissolution of clinical signs and potential side effects and a physical examination was performed. A full biochemical profile and an ACTH stimulation test were carried out. Further tests such as urinanalysis, urine culture, thoracic radiographs, etc. were done if deemed necessary. If the clinical sips of hyperadrenocorticism (polyuria/polydipsia, polyphagia, exercise intolerance, etc.) were still present and if the post-ACTH cortisol concentration remained above 220 nmol/l, trilostane was given twice daily at the same dosage.
Starting dose was between 1.8 and 20 mg/kg (mean: 6.0; SD 3.4 mg/kg). […] Two cross bred dogs with classical clinical signs and endocrine testing results of HAC were started on 6.5 and 7.5 mg/kg trilostane. […] One of the dogs also was hyperkalaernic and hyponatraemic (ratio:22.3). In both dogs no more trilostane was given thereafter and the dogs are free of clinical signs after 2.7 and 1.4 years. In the 9 dogs with adrenal tumours, which started on the same dosing protocol as the dogs with PDH, two had the dose halved, three stayed on the original dose while in 4 dogs the dose was increased up to 300% of the original dose.

[3] = tested on: dogs with hyperadrenocorticism (HAC); test: Prospective study of trilostane in dogs with spontaneous hyperadrenocorticism (HAC): clinical signs and survival; assay type: in vivo, dog
Procedure: Animals were entered into a prospective study and all animals required clinical and laboratory signs of hyperadrenocorticism as well as a final diagnosis of this disease. Data collected from each case included a clinical-historicy and physical examination, full blood count (CBC), serum biochemical profile, urinalysis and abdominal ultrasound. An ACTH-stimulation test was performed in all dogs. […] Dogs that had been treated for HAC other medication needed to be off these drugs for at least 10 days. Dogs with renal or hepatic insufficiency and dogs that received steroids were not included in the study.
Dogs with pituitary dependant hyperadrenocorticism or adrenal tumour which was unresectable or the owners were unwilling to have surgery performed, respectively, were treated with trilostane. The initial dose for dogs[…] was 30 mg once daily, dogs between 5 and 15 kg received 60 mg once daily and dogs>15 kg received 120 mg once daily. Dosages were adjusted based on clinical signs, blood biochemical parameters and an ACTH stimulation test.
as §2

[4] = tested on: hypothalamic-pituitary-adrenal axis; test: Combined dexamethasone suppression / TRH stimulation test, serum cortisol in horses; assay type: in vivo, horse
Procedure: as §1
This is similar to the post ACTH stimulation in the dogs. The adrenal gland is not responding to stimulation by pituitary hormone in the same way as before trilostane treatment.

dogs with Alopecia X = test: Treatment of Alopecia X in dogs, hair re-growth; assay type: in vivo, dog; conditions: once-daily dose
Excerpt: To study the effect of trilostane in the treatment of Alopecia X a total of 11 dogs with the condition were examined along with 10 unaffected dogs. The hormonal abnormalities were identified, with increases in cortisol and 17 OHP concentrations. Trilostane in a once-daily dose was given to the affected animals. Five of the six Pomeranians (83%) and all four of the Miniature poodles have responded to trilostane, showing hair re-growth in the affected areas.

[5] = mean of all horses, once daily 0.4-1.0 mg/k for 30 days
[6] = Table 2, individual horses, after trilostane
[7] = Table 5, individual horses, after 30 days 0.4–1.0 mg/k
[8] = mean of horses, after 30 days trilostane

CC12CCC3C(CC[C@@]45O[C@@H]4C(=O)C(C#N)CC35C)C1CC[C@@H]2O (stereo partly drawn) [Trilostane, 2α-cyano-4α,5α-epoxyandrostan-17β-ol-3-one]
Change of serum cortisol concentrations pre vs post trilostane, in words (serum cortisol; horses, once daily dose, 30 days): only a small drop in cortisol levels; also recorded: no apparent change in cortisol concentrations | Mean Cortisol concentrations over 24 hrs, POST TREATMENT Mean (serum cortisol; individual horses, mean of 6 samples at 4-hourly intervals, after 30 days of oral trilostane): 108 and 203.7 and 157.3 and 263.3 and 143 and 193 and 122.8 and 134.4 and 112 and 152.3 and 113 and 194.7 and 94.8 and 112.3 and 183.3 and 245.5 and 158 and 164.5 and 160 and 149.8 | Serum cortisol, Post Trilosane Mean (serum cortisol; individual horses, mean of 6 samples over 24 hours, once daily 0.4-1.0 mg/k for 30 days, listed as Trilosane): 108 nmol/L and 203.7 nmol/L and 157.3 nmol/L and 263.3 nmol/L and 143 nmol/L and 193 nmol/L and 122.8 nmol/L and 134.4 nmol/L and 112 nmol/L and 152.3 nmol/L and 113 nmol/L and 194.7 nmol/L and 94.8 nmol/L and 112.3 nmol/L and 183.3 nmol/L and 245.5 nmol/L and 158 nmol/L and 164 nmol/L and 1 nmol/L and 149 nmol/L | Serum cortisol, Difference, pre-post (serum cortisol; individual horses, once daily 0.4-1.0 mg/k for 30 days, listed as Trilosane): -7.5 nmol/L and -61.2 nmol/L and -0.1 nmol/L and -6.8 nmol/L and 4 nmol/L and -38 nmol/L and -3 nmol/L and -17.1 nmol/L and 11 nmol/L and 10.4 nmol/L and 3.6 nmol/L and 34.6 nmol/L and -2.5 nmol/L and 2.4 nmol/L and -24.5 nmol/L and -80.5 nmol/L and -31.5 nmol/L and 5.5 nmol/L and 15.2 nmol/L and 3.4 nmol/L | Serum cortisol, Difference, pre-post, group mean (serum cortisol; [5]): -9.1 ± 26.9 nmol/L | Serum cortisol, Post Trilosane Mean, group mean (serum cortisol; [5]): 158.3 nmol/L | % pre Trilostane Cortisol ([1]; 12 days of Trilostane treatment): −29.7% | Post ACTH stimulation test serum Cortisol ([1]; 12 days of Trilostane treatment (5-10 mg/k), 53 dogs): 249 nmol/L | % pre Trilostane Cortisol ([1]; 35 days of Trilostane treatment): −30.0% | Post ACTH stimulation test serum Cortisol ([1]; 35 days of Trilostane treatment (5-10 mg/k), 59 dogs): 231 nmol/L | % pre Trilostane Cortisol ([1]; 81 days of Trilostane treatment): −27.3% | Post ACTH stimulation test serum Cortisol ([1]; 81 days of Trilostane treatment (5-10 mg/k), 48 dogs): 214 nmol/L | Serum cortisol post ACTH as % of the original value ([1]; first re-examination, all dogs): less than 61% | Cortisol response to ACTH, in words ([1]; single daily dose 5-20 mg/kg, vs non-treatment controls): markedly reduced | Biochemistry abnormalities during the course of therapy ([2]; all without clinical consequence): one episode of hyperkalaemia, two episodes of azotaemia, three episodes of hyperbilirubinaemia and two episodes of hypercalcaemia | Acute deaths ([2]; dog, in vivo): Three dogs died acutely at home | Tolerability ([2]; starting dose 1.8 to 20 mg/kg): generally well tolerated | Hyperkalaemia and hyponatraemia ([2]; trilostane stopped, both dogs euthanised): two dogs showed hyperkalaemia and hyponatraemia prior to clinical deterioration | ACTH stimulation test leading to stop of the drug ([2]; two cross bred dogs started on 6.5 and 7.5 mg/kg, after two and three months): both showed a flat-lined ACTH stimulation test | Mean time to euthanasia or death, dogs with PDH ([3]; 22 dogs, SD 195.1, range 27-730 days): 230.9 days | Mean time since commencing treatment, dogs with PDH alive ([3]; 32 dogs, SD 285.2, range 105 to 1120 days): 417.3 days | Skin abnormalities ([3]; all dogs with skin abnormalities, 2-3 months after starting): marked improvement with normal hair growth | Dogs in which polyuria/polydipsia and polyphagia dissipated within the first 10 days of treatment ([3]; dog, in vivo): 29 dogs | Dogs in which polyuria/polydipsia and polyphagia dissipated within the first month of treatment ([3]; dog, in vivo): 14 dogs | Dogs with clinical signs improved but always some clinical signs of HAC ([3]; dog, in vivo): 6 dogs | Dogs with PDH alive ([3]; of 54 dogs with PDH): 32 dogs | Median survival, dogs with adrenal tumour that died or were euthanised ([3]; six dogs, SD 174.9 days): 260 days | Serum cortisol Post-Treatment Base [4, 6]: 160 and 236 and 116 and 254 and 149 and 127 and 112 and 136 and 65 and 202 and 81 and 100 and 209 and 189 and 121 and 288 | Serum cortisol Post-Treatment Post Dex [4, 6]: 170 and 149 and 118 and 113 (2×) and 82 and 81 (2×) and 163 and 50 and 101 and 138 and 47 and 1 and 153 | Serum cortisol Post-Treatment Post TRH [4, 6]: 114 and 316 and 167 and 193 and 93 and 79 and 139 and 158 and 170 and 88 and 150 and 117 and 100 (2×) and 138 and 224 | % change ([4]; Table 2, individual horses, pre vs post treatment): −60.5% and −69% and −8% and −84% and −82% and −16% and −5% and −27% and −233% and −50% and −1% and −10% and 18% and −57% and 1% and −15.8% | Different, pre-post: % TRH resp ([4]; Table 5, individual horses): 60% and 69% and 8% and 84% and 52% and 16% (2×) and 5% and 27% and 152% and 50% and 1% and 11% and −18% and 57% and 37% | Different, pre-post: Base ([4]; Table 5, individual horses): -33 nmol/L and -105 nmol/L and 15 nmol/L and -118 nmol/L and -124 nmol/L and -23 nmol/L and 20 nmol/L and -8 nmol/L and 8 nmol/L and 29 nmol/L and 5 nmol/L and 2 nmol/L and 65 nmol/L and -18 nmol/L and 22 nmol/L and -95 nmol/L | Different, pre-post: post Dex ([4]; Table 5, individual horses): −20 nmol/l and 12 nmol/l and 4 nmol/l and −10 nmol/l and 7 nmol/l (2×) and −16 nmol/l and −17 nmol/l and 107 nmol/l and 5 nmol/l and 15 nmol/l and −40 nmol/l and 23 nmol/l and 60 nmol/l and −67 nmol/l | Different, pre-post: post TRH ([4]; Table 5, individual horses): 53 nmol/L and -50 nmol/L and 32 nmol/L and 27 nmol/L and 49 nmol/L and 2 nmol/L and 31 nmol/L and 25 nmol/L and 66 nmol/L and 130 nmol/L and 10 nmol/L and 8 nmol/L and -19 nmol/L and 84 nmol/L and 71 nmol/L and -43 nmol/L | Cortisol post Trilostane Base [4, 7]: 160 nmol/L and 236 nmol/L and 116 nmol/L and 254 nmol/L and 149 nmol/L and 127 nmol/L and 112 nmol/L and 136 nmol/L and 65 nmol/L and 202 nmol/L and 81 nmol/L and 100 nmol/L and 209 nmol/L and 189 nmol/L and 121 nmol/L and 288 nmol/L | Cortisol post Trilostane post Dex [4, 7]: 170 nmol/l and 149 nmol/l and 118 nmol/l and 113 nmol/l (2×) and 82 nmol/l and 81 nmol/l (2×) and 163 nmol/l and 50 nmol/l and 101 nmol/l and 138 nmol/l and 47 nmol/l and 1 nmol/l and 153 nmol/l | Cortisol post Trilostane post TRH [4, 7]: 114 nmol/l and 316 nmol/l and 167 nmol/l and 193 nmol/l and 93 nmol/l and 79 nmol/l and 139 nmol/l and 158 nmol/l and 170 nmol/l and 88 nmol/l and 150 nmol/l and 117 nmol/l and 100 nmol/l (2×) and 138 nmol/l and 224 nmol/l | post Trilostane % TRH resp [4, 7]: −29% and 34% and 44% and −24% and −38% (2×) and 24% and 16% and 162% and −56% and 85% and 17% and −52% and −27% and −17% and −22% | Cortisol response to TRH / Dex pre vs post trilostane, in words ([4]; horses, single daily dose): lowering of the response to TRH; also recorded: decrease in cortisol response to TRH administration | Different, pre-post: % TRH resp, group mean ([4]; mean of horses): 39.2% | Different, pre-post: Base, group mean ([4]; mean of horses): -22 nmol/L | Different, pre-post: post Dex, group mean ([4]; mean of horses): 5 nmol/L | Different, pre-post: post TRH, group mean ([4]; mean of horses): 30 nmol/L | Cortisol post Trilostane post Dex, group mean ([4]; mean of horses, 22 hours post dexamethasone, after 30 days trilostane): 104 nmol/L | Cortisol post Trilostane Base, group mean [4, 8]: 159 nmol/L | Cortisol post Trilostane post TRH, group mean [4, 8]: 147 nmol/L | Miniature poodles responding, hair re-growth in the affected areas (dogs with Alopecia X): all four | Pomeranians responding, hair re-growth in the affected areas (dogs with Alopecia X; five of six): 83%
